Holding throughout (format): cell-based
Test [1] concerns the target T1, ENaC (Homo sapiens, UniProt P37088+P51168+P51170, A314G).
T1 construct: expressed in transfected cells
T1 sequence (P37088 1-669): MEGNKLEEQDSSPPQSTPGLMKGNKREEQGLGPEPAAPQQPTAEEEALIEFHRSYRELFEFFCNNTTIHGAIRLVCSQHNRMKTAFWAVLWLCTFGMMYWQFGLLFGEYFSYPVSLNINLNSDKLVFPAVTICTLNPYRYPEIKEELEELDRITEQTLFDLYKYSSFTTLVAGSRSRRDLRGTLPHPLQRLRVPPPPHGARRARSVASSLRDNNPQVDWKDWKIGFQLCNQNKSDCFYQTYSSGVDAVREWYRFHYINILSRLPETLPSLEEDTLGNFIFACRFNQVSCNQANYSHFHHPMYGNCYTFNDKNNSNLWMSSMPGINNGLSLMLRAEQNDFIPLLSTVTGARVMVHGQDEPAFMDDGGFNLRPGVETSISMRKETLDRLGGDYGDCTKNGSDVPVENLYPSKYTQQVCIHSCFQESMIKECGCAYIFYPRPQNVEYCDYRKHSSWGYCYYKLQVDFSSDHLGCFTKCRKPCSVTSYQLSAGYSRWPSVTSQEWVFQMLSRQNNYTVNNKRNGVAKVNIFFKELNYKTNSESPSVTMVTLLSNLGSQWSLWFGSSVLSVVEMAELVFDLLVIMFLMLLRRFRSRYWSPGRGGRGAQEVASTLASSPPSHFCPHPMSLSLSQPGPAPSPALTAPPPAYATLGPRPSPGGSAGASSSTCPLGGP
T1 sequence (P51168 1-640 A314G): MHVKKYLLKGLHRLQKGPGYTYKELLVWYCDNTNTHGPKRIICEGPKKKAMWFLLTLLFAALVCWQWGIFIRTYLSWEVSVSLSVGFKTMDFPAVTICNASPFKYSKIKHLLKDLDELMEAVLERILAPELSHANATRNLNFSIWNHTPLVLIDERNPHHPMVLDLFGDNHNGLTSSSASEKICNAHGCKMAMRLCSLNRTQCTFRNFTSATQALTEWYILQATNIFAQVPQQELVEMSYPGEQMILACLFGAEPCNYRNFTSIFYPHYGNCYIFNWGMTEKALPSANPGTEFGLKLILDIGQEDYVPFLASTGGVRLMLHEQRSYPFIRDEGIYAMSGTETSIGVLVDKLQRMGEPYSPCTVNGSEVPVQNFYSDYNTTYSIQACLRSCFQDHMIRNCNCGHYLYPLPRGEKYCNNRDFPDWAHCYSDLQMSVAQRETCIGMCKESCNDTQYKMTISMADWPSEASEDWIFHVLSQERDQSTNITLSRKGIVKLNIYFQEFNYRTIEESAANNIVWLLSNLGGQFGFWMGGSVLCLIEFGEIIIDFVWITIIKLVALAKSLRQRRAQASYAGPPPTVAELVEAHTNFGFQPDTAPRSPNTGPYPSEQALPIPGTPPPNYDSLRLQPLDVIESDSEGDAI
T1 sequence (P51170 1-649): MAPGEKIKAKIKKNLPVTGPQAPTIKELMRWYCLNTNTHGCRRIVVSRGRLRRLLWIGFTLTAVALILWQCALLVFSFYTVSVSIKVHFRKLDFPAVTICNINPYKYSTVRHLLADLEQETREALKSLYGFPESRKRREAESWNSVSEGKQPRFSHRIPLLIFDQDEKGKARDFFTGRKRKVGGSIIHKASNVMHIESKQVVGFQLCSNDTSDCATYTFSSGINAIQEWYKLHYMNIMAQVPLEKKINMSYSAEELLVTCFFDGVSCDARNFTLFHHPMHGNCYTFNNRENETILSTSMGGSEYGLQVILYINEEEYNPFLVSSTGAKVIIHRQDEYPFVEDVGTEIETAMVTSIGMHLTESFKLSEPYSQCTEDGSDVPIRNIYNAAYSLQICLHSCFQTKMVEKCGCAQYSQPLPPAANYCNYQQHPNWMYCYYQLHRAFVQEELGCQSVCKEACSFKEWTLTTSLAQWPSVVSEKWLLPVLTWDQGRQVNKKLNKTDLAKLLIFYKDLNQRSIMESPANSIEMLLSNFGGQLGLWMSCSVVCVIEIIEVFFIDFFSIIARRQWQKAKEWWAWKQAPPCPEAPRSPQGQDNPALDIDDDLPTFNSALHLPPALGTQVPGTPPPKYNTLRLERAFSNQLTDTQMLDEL
As to the kind of experiment: membrane potential assay with stable ENaC cell line (CHO). The method, then:
The influx of positively-charged sodium ions following the activation of ENaC results in a change in the membrane potential of the cell. To test the activity of ENaC cell lines, we used a membrane potential assay. Such assays are well known in the art. […] Rev. Biophys. […]
The assay plates were maintained in a 37° C. cell culture incubator under 5% CO2 for 19-21 hours. The media was then removed from the assay plates and 20 μl blue membrane potential dye (Molecular Devices Inc) was added and the cells were incubated for 1 hr at room temperature. Test compounds were solubilized in dimethylsulfoxide, diluted in a phosphate buffer and loaded into 384 well polypropylene micro-titer plates. The cell and compound plates were loaded into an FDSS instrument (Hamamatsu) which measures fluorescence (relative fluorescence units) from the plates over time. Fluorescence values were continuously collected from the beginning of the experiment and following addition of test compounds to report baseline values and any changes due to the addition of test compounds. Test compounds in assay buffer or assay buffer alone were then added to the cells and flluorescence values were collected for two minutes.

Test [2] deals with proteolyzed ENaC Form 24. As to the kind of experiment: membrane potential assay, trypsin-treated ENaC cells. To be noted: FIG. 8 dose response.
Protocol: After a 1 hour incubation with a dye-protease solution at room temperature, the assay was run using the FDSS (Hamamatsu Corporation) as described above.
The experiment was performed using several treatment groups, each receiving a different concentration of trypsin (0 to 3 mg/ml). The cells were incubated with the trypsin for 1 hour at room temperature concurrently with membrane potential dye (standard protocol). […] We further characterized these proteolytically modified isoforms for their ability to conduct sodium.
The isoform specific assay described above was performed with MBP dye solution with trypsin concentrations as listed (Table 2).
Test [3] concerns proteolytically cleaved ENaC isoforms. Kind of test: dose response of inhibitors across trypsin concentrations, membrane potential FDSS protocol. Particulars: FIG. 9, trypsin 0 to 2.25 mg/ml, IC50 plotted against protease concentration. The method, then:
We also tested the ability of novel ENaC inhibitors (identified in Example 4) to inhibit proteolytically cleaved ENaC. […] The cells were loaded with membrane potential dye concurrently with the trypsin. […] values were calculated and plotted as a function of protease concentration. […] The different isoforms of ENaC can be pursed in drug discovery to more effectively address the role of the different isoforms of ENaC or the effect or role of proteolysis in disease.

[4] abbreviates: ENaC cell line maintained in 90 mM sodium media, read-out: EC50 (approx).
The mark [5] stands for this setting: ENaC cell line maintained in 150 mM sodium media, read-out: EC50 (approx).
The mark [6] stands for this setting: a cell line of the invention, general statement, read-out: EC50.

“Also recorded” adds a separate entry of the source. Where two headings read alike, the source gives them in different places.

With `N=C(N)NC(=O)c1nc(Cl)c(N)nc1N` [Amiloride, amiloride], in test [1], the “block of the sodium response” value was “essentially all of the sodium response was blocked” and the “inhibition of uncleaved (non-proteolyzed) ENaC” value was “effectively inhibits; also recorded: almost completely inhibit”. Moreover, in test [2], the “inhibition of cleaved ENaC form 24” value is “much less effective or not effective; also recorded: not effective to inhibit Form 24”. Further, the “inhibition of proteolytically cleaved ENaC isoforms” value in test [3] was “inhibit a unique subset of ENaC isoforms”.

What is called EC50 is the midpoint of the concentration-response curve. For `[Cl-].[Li+]` [LiCl, lithium chloride], the values for the EC50 in test [1] (setting [4]), in test [1] (setting [5]) and in test [1] (setting [6]) were about 33 mM, about 82 mM and about 35 mM, respectively.

Consider `[Cl-].[Na+]` [NaCl, sodium chloride], for which the EC50 in test [1] (setting [4]) was about 48 mM; in test [1] (setting [5]), about 80 mM; in test [1] (FIG. 4, read-out: EC50) it was 48 mM; in test [1] (setting [6]) it was about 50 mM.

These data come from patent US9534035B2, “Cell lines expressing ENaC and methods using them” (priority 2008, dated 2017).
